From US20220193047A1, “METHODS OF ENHANCING RADIOTHERAPY USING FERROPTOSIS INDUCERS AS RADIOSENSITIZERS” (THE TRUSTEES OF COLUMBIA UNIVERSITY IN THE CITY OF NEW YORK, priority 2019, published 2022)
* marks the point of attachment. Cbz = O=C(OCc1ccccc1)*; CH2F = FC*

Columns and labels:
HT-1080 cells [1] = assay: Cell Titer Glo cell viability assay with radiation; format: cell-based; conditions: for Cell viability after radiation (ATP-based luciferase assay): HT-1080, 4 Gy radiation for 24 h
Procedure: HT-1080 cells were plated at 1,000 cells per well in white 96-well plates (100 uL per well) in technical duplicates. The cells were then treated with vehicle (DMSO), Ferrostatin-1, DFO, Z-VAD-FMK or Necrostatin-1S and incubated overnight. […] After another 24 h, 100 uL of 50% Cell Titer Glo (Promega) 50% cell culture medium was added to each well and incubated at room temperature with shaking for 15 min. Luminescence was measured using a Victor X5 plate reader (PerkinElmer). Experiments were performed three independent times with different passages for each cell line.

HT-1080 cells [2] = assay: Clonogenic assay with Cs-137 gamma radiation, HT-1080; format: cell-based; design: key to CDI with radiation: CDI = AB/(A×B) of surviving fractions; <1 synergy; conditions: for Colony formation after radiation alone: HT-1080, 2 or 4 Gy radiation, no ferroptosis inducer; for Enhancement of radiation effect on clonogenic survival: HT-1080, cell death inducer plus radiation; for CDI with 4 Gy IR / CDI with 2 Gy IR: HT-1080 cells, CDI<1 synergy; for CDI with 2 Gy IR: inducer concentration (300 nM IKE, 20 nM RSL3, 1 nM staurosporine, 2 nM doxorubicin, 300 nM rapamycin, 100 ng/mL TNF + 20 μM Z-VAD-FMK + 300 nM birinapant); for CDI with radiation: 5 μM sorafenib, HT-1080
Procedure: 500 cells were seeded per well in 6-well plates in their respective growth media and incubated overnight. The next day, cells were co-treated with DMSO or compounds and radiation using a Gammacell 40 Caesium-137 irradiator (Theratronics). Plates were monitored every day using a light microscope for formation of colonies in the DMSO-treated wells. When colonies of >50 cells are clearly visible, the growth medium was discarded from all plates. The cells were washed with PBS, then fixed and stained with crystal violet solution (0.05% crystal violet, 1% formaldehyde, 1% methanol in PBS). Colonies were then directly visualized and counted.
We tested their ability to prevent clonogenic growth, along with DMSO-treated controls.
The coefficient of drug interaction (CDI), used to compute interaction between two drugs, was used to quantify synergy between cell death inducers and radiation according to the formula CDI=AB/(A×B), where AB is the surviving fraction of the combination treatment, and A and B are the surviving fractions of the individual treatments.

HT-1080 xenograft tumors = assay: HT-1080 tumor xenograft study in mice; conditions: 40 mg/kg i.p. daily for 14 days
Procedure: The injections were repeated daily for 14 days. […] For the sorafenib experiment, the formulation used was 40 mg/kg sorafenib in 5% DMSO, 20% ethanol in water containing 30% w/v cyclodextrin. […] Tumor size was measured daily using calipers and mouse weight was measured daily.
The efficacy of the combined treatment regimen of radiation and ferroptosis inducer was evaluated in an in vivo tumor model. […] Athymic nude mice were implanted with subcutaneous HT-1080 fibrosarcoma cells to form xenograft tumors.

[3] = tested on: reduced glutathione (GSH) in HT-1080 cells; assay: Reduced glutathione measurement in cells; format: cell-based; conditions: HT-1080, 6 Gy radiation for 24 hours, vs DMSO, sorafenib alone or radiation alone
Procedure: Cystine taken up by system xc^− is reduced to cysteine, a building block in the biosynthesis of glutathione. […] Using a fluorometric GSH probe, we observed that treatment with 2 or 6 Gy radiation for 24 hours depleted GSH in a dose-dependent manner in HT-1080 cells (FIG. 2E). […] Indeed, the decrease in colony formation of HT-1080 cells following 2 or 4 Gy radiation was rescued by either glutathione methyl ester or N-acetylcysteine, which is a biological precursor to glutathione (FIG. 9).

[4] = tested on: GSH in HT-1080 xenograft tumors; assay: Reduced glutathione in xenograft tumor tissue
Procedure: The cell pellet was resuspended in 100 μl of RIPA buffer and homogenized by pipetting. The lysate was centrifuged at 16,700×g at 4° C. for 15 min, and cleared lysate was used to determine the amount of GSH in the sample. We used the GSH/GSSG ratio detection assay kit (Abcam, #ab138881) and followed the product instructions to determine GSH levels.
The injections were repeated daily for 14 days. […] Tumor size was measured daily using calipers and mouse weight was measured daily. The animal protocols containing all the procedures were approved by Columbia University's IACUC.

[5] = tested on: TM00219 patient-derived xenograft tumors; assay: Patient-derived xenograft study in mice (TM00219 lung adenocarcinoma); format: in vivo; conditions: 40 mg/kg i.p. daily for 14 days, NSG mice
Procedure: The experiment was conducted according to the same protocol as the HT-1080 tumor xenograft study, with the exception that a single dose of radiation (sham or 6 Gy) was delivered to the tumor on day 1 of the experiment.
Finally, the effect of ferroptosis-inducing system xc^− inhibitors, in combination with radiation, was tested on a patient-derived xenograft (PDX) model of lung adenocarcinoma, which is another type of cancer commonly treated with radiation therapy. NSG mice engrafted with a human lung adenocarcinoma tumor (TM00219) were evaluated.

cleaved caspase-3 = assay: Western blot of cleaved caspase-3; format: cell-based
Procedure: 1 million cells were seeded in 10 cm dishes and treated with compounds and/or radiation on the next day. […] After quantification by Bradford, samples were mixed with 5×SDS loading buffer and separated by SDS-polyacrylamide gel electrophoresis. After transfer, membranes were blocked for 10 min in Tris-buffered saline (pH 7.4) with 1% Tween-20 (TBS-T) with 5% milk and incubated in primary antibody overnight at 4° C. Following 3× for 5 min washes in TBS-T, the membrane was incubated with secondary antibodies for 1 hr. The membrane was washed again in TBST 3× for 5 min prior to visualization using enhanced chemiluminescence (ECL Western Blotting Substrate, Pierce). Antibody for cleaved caspase 3 (Cell Signaling Technology, #9661) was used at 1:1000 and detected using a Peroxidase AffiniPure Goat Anti-Rabbit IgG (H+L) (Jackson ImmunoResearch, 111-295-144) at 1:5000 dilution.
DNA damage is a potent inducer of apoptosis. […] Despite this, some quantity of 17-kDa cleaved caspase-3 was still detectable in the Z-VAD-FMK-treated sample. To further check for potential radiation-induced apoptosis in this model at a later time point, we attempted to rescue the effects of radiation using 100 μM Z-VAD-FMK after 48, 72, and 96 h (FIG. 10).

[6] = tested on: models of glioma, melanoma, and breast cancer; conditions: Cobler et al., 2018, Nagane et al., Sleire et al., 2015; cited from earlier work

In the case of `Cn1cnc(N)c2ncnc1-2` [3-methyladenine], the “Cell viability after radiation (ATP-based luciferase assay)” value (HT-1080 cells [1]) is reported as “also rescued cells”.

With `CC(=O)N[C@@H](CS)C(=O)O` [N-acetylcysteine] the “Colony formation after radiation alone” value (HT-1080 cells [2]) was “rescued”.

In the case of `COc1cccc2c1C(=O)c1c(O)c3c(c(O)c1C2=O)C[C@@](O)(C(=O)CO)C[C@@H]3O[C@H]1C[C@H](N)[C@H](O)[C@H](C)O1` [doxorubicin], the “Enhancement of radiation effect on clonogenic survival” value (HT-1080 cells [2]) is reported as “only slightly enhancing radiation-induced cell death”, the “CDI with 4 Gy IR” value (HT-1080 cells [2]) is reported as 0.9 and the “CDI with 2 Gy IR” value (HT-1080 cells [2]) is reported as 1.07.

With `COC(=O)CNC(=O)[C@H](CS)NC(=O)CC[C@H](N)C(=O)O` [glutathione methyl ester] the “Colony formation after radiation alone” value (HT-1080 cells [2]) was “rescued”.

In the case of `CN1C(=O)NC(Cc2c[nH]c3c(Cl)cccc23)C1=O` (stereo not drawn) [necrostatin-1S], the “Cell viability after radiation (ATP-based luciferase assay)” value (HT-1080 cells [1]) is reported as “not”.

In the case of `CO[C@H]1C[C@@H]2CC[C@@H](C)[C@@](O)(O2)C(=O)C(=O)N2CCCC[C@H]2C(=O)O[C@H]([C@H](C)C[C@@H]2CC[C@@H](O)[C@H](OC)C2)CC(=O)[C@H](C)/C=C(\C)[C@@H](O)[C@@H](OC)C(=O)[C@H](C)C[C@H](C)/C=C/C=C/C=C/1C` [rapamycin], the “CDI with 4 Gy IR” value (HT-1080 cells [2]) is reported as 0.62 and the “CDI with 2 Gy IR” value (HT-1080 cells [2]) is reported as 0.89.

With `CNC(=O)c1cc(Oc2ccc(NC(=O)Nc3ccc(Cl)c(C(F)(F)F)c3)cc2)ccn1` [sorafenib] the “Tumor volume, sorafenib alone vs control” value (HT-1080 xenograft tumors) was “No difference was observed”, the “Levels of GSH, sorafenib plus radiation” value [3] was “significant depletion of GSH” and the “GSH in tumor tissue, sorafenib vs vehicle” value ([4]; 40 mg/kg sorafenib i.p. 14 days) was “significantly lower GSH”. For the same compound, the “GSH in tumor tissue, dual-treated” value ([4]; 40 mg/kg sorafenib i.p. 14 days plus 6 Gy on days 1 and 3) was “further significant GSH depletion”, the CDI with radiation (HT-1080 cells [2]; 2 Gy) was 0.65 and the CDI with radiation (HT-1080 cells [2]; 4 Gy) was 0.47. The “Tumor growth, combination with radiation vs all other groups” value ([5]; 6 Gy on day one) was “significant tumor growth inhibition” and the “Tumor growth, drug alone vs vehicle only” value [5] was “significant tumor control”.

For `CN[C@@H]1C[C@H]2O[C@@](C)([C@@H]1OC)n1c3ccccc3c3c4c(c5c6ccccc6n2c5c31)C(=O)NC4` [staurosporine], the “Enhancement of radiation effect on clonogenic survival” value (HT-1080 cells [2]) was “only slightly enhancing radiation-induced cell death”, the “CDI with 4 Gy IR” value (HT-1080 cells [2]) was 0.83 and the “CDI with 2 Gy IR” value (HT-1080 cells [2]) was 1.1. For the same compound, the “Cleavage of caspase-3, compound alone” value (cleaved caspase-3; HT-1080, IKE or RSL3 24 h, staurosporine 500 nM for 6 h) was “induced cell death along with levels of caspase-3 cleavage”.

For `O=C(O)c1cc(/N=N/c2ccc(S(=O)(=O)Nc3ccccn3)cc2)ccc1O` [sulfasalazine], the “Potentiation of radiation (prior reports)” value [6] is listed as “potentiate radiation”.

With `Cc1c(C)c2c(c(C)c1O)CCC(C)(C(=O)O)O2` (stereo not drawn) [trolox] the “Colony formation after radiation alone” value (HT-1080 cells [2]) was “partially rescued cell death induced by radiation alone” and the “Synergy between IKE or RSL3 and radiation in colony formation” value (HT-1080 cells [2]; HT-1080, co-treatment with ferroptosis inhibitor) was “suppress the synergy”.

For Cbz-Val-Ala-Asp-CH2F, the “Rescue of cell viability after radiation at later time points” value (HT-1080 cells [1]; HT-1080, 100 μM Z-VAD-FMK, 48, 72, and 96 h) was “no significant rescue of cell viability”, the “Cell viability after radiation (ATP-based luciferase assay)” value (HT-1080 cells [1]) was “not” and the Staurosporine-induced cell death (cleaved caspase-3; HT-1080, 500 nM staurosporine plus 100 μM Z-VAD-FMK) was “rescued from staurosporine-induced cell death”.
